The source made the active and inactive calls. The calls are words filed in the database; no cut-off is given here.
How the values were obtained:
[1] = Induction of ABCA1 gene expression in human skeletal muscle cells at 1000 nM by RT-PCR; assay type: functional
Rattus norvegicus [2] = assay: Increase in HDL cholesterol level in po dosed hypercholesterolemic Sprague-Dawley rat serum after 8 days; assay type: functional
Rattus norvegicus [3] = assay: Decrease in total cholesterol level in hypercholesterolemic Sprague-Dawley rat serum at 0.1 to 1 mg/kg, po after 8 days; assay type: functional; conditions: dose mg/kg 0.1-1
[4] = Cmax in Sprague-Dawley rat at 1 mg/kg administered as multiple dose after 8 days; assay type: ADME, organism-based; set-up: dose 1 mg/kg; conditions: in vivo
[5] = Cmax in Sprague-Dawley rat at 3 mg/kg administered as multiple dose after 8 days; assay type: ADME, organism-based; set-up: dose 3 mg/kg; conditions: in vivo
[6] = AUC in Sprague-Dawley rat at 0.1 mg/kg administered as multiple dose after 8 days; assay type: ADME, organism-based; set-up: dose 0.1 mg/kg; conditions: plasma
[7] = AUC in Sprague-Dawley rat at 0.3 mg/kg administered as multiple dose after 8 days; assay type: ADME, organism-based; set-up: dose 0.3 mg/kg; conditions: plasma
[8] = AUC in Sprague-Dawley rat at 3 mg/kg administered as multiple dose after 8 days; assay type: ADME, organism-based; set-up: dose 3 mg/kg; conditions: plasma
[9] = Half life in Sprague-Dawley rat at 1 mg/kg administered as multiple dose after 8 days; assay type: ADME, organism-based; set-up: dose 1 mg/kg; conditions: in vivo
[10] = Half life in Sprague-Dawley rat at 3 mg/kg administered as multiple dose after 8 days; assay type: ADME, organism-based; set-up: dose 3 mg/kg; conditions: in vivo
[11] = Half life in Sprague-Dawley rat at 3 mg/kg administered as single dose on day 8; assay type: ADME, organism-based; set-up: dose 3 mg/kg; conditions: in vivo
[12] = AUC in Beagle dog at 1 mg/kg administered as multiple dose after 7 days; assay type: ADME, organism-based, Canis lupus familiaris; set-up: dose 1 mg/kg; conditions: plasma
[13] = Half life in Beagle dog at 3 mg/kg administered as multiple dose after 7 days; assay type: ADME, organism-based, Canis lupus familiaris; set-up: dose 3 mg/kg; conditions: in vivo
[14] = Half life in Beagle dog at 10 mg/kg administered as multiple dose after 7 days; assay type: ADME, organism-based, Canis lupus familiaris; set-up: dose 10 mg/kg; conditions: in vivo
[15] = Cmax in ob/ob C57BL/6J-leptin deficient obese mouse at 0.1 mg/kg administered as multiple dose after 11 days; assay type: ADME, organism-based; set-up: dose 0.1 mg/kg; conditions: in vivo
[16] = Cmax in ob/ob C57BL/6J-leptin deficient obese mouse at 1 mg/kg administered as multiple dose after 11 days; assay type: ADME, organism-based; set-up: dose 1 mg/kg; conditions: in vivo
[17] = AUC in ob/ob C57BL/6J-leptin deficient obese mouse at 1 mg/kg administered as multiple dose after 11 days; assay type: ADME, organism-based; set-up: dose 1 mg/kg; conditions: plasma
[18] = Half life in ob/ob C57BL/6J-leptin deficient obese mouse at 0.3 mg/kg administered as multiple dose after 11 days; assay type: ADME, organism-based; set-up: dose 0.3 mg/kg; conditions: in vivo
Canis familiaris [19] = assay: Antihyperlipidemic activity in Beagle dog serum assessed as reduction in free fatty acids level at 0.3 to 10 mg/kg, po/day after 7 days; assay type: functional, organism-based; conditions: Canis lupus familiaris
Canis familiaris [20] = assay: Increase in aspartate aminotransferase level in Beagle dog serum at 10 mg/kg, po/day after 7 days; assay type: functional, Canis lupus familiaris
[21] = target: T1, Peroxisome proliferator-activated receptor alpha (Homo sapiens, UniProt Q07869); assay: Agonist activity at human PPARalpha-Gal4 in HEK293 cells by luciferase reporter assay; assay type: functional, cell-based
T1 sequence (Q07869 whole entry): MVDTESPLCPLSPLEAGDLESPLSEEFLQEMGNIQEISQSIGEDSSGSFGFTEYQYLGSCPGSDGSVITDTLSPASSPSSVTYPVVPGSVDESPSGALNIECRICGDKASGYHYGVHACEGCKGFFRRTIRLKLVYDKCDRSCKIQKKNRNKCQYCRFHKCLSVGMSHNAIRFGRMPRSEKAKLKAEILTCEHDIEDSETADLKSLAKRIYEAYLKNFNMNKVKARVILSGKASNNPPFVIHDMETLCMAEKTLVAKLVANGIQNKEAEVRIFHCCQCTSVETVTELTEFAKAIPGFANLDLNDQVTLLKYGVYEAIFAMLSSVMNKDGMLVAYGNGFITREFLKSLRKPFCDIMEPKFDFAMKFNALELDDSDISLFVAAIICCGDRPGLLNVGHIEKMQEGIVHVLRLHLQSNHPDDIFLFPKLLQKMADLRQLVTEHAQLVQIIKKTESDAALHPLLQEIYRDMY

[22] = target: T2, Peroxisome proliferator-activated receptor alpha (Homo sapiens) (UniProt Q07869); assay: Agonist activity at human PPARalpha-Gal4 in HEK293 cells by luciferase reporter assay relative to (S)-2-{2-[1-ethyl-3-(4-trifluoro-methoxyphenyl)ureido]indan-5-ylsulfanyl}-2-methylpropionic acid; assay type: functional, cell-based
T2 sequence (whole entry): T1 sequence (Q07869 whole entry)

[23] = target: T3, Peroxisome proliferator-activated receptor delta (Homo sapiens, UniProt Q03181); assay: Agonist activity at human PPARdelta-Gal4 in HEK293 cells by luciferase reporter assay; assay type: functional, cell-based
T3 sequence (Q03181 whole entry): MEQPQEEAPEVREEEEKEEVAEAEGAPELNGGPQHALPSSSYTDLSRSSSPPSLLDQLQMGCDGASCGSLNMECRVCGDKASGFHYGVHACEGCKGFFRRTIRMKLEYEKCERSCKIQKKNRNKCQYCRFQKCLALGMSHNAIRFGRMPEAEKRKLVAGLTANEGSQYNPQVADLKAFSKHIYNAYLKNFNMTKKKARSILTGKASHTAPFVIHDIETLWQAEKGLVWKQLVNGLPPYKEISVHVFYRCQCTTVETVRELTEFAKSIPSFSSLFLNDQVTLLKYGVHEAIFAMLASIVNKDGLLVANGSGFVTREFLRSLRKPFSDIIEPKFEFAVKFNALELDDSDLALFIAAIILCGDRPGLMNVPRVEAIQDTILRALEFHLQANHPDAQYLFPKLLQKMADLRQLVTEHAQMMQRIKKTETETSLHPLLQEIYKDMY

[24] = Activity at liver X receptor
[25] = Activity at retinoic acid X receptor
[26] = target: T4, Glucocorticoid receptor (Homo sapiens) (UniProt P04150); assay: Activity at glucocorticoid receptor
T4 sequence (whole entry): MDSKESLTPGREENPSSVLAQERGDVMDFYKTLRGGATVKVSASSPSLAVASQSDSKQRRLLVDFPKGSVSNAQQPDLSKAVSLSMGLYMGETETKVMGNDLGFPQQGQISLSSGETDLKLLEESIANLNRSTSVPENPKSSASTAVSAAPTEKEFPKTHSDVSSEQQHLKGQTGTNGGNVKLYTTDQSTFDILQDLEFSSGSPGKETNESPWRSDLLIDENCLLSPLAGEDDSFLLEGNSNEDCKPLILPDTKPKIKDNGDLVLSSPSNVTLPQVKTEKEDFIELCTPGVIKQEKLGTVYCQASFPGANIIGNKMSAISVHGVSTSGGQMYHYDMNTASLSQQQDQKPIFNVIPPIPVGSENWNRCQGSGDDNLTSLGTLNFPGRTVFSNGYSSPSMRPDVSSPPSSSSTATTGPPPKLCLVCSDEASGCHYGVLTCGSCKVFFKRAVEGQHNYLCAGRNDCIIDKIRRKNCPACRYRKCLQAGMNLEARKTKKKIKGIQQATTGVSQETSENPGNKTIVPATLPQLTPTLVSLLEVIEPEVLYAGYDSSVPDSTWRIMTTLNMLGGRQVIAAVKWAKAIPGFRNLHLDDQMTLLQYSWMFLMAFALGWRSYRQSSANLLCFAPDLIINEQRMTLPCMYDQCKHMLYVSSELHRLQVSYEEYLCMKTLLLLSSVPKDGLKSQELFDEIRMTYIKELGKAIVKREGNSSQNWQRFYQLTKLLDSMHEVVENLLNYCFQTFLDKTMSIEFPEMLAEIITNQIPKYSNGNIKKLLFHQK

Cmax [4]: 1360 ng/mL
Cmax [5]: 2000 ng/mL
AUC at 192 h [6]: 738 ng·h/mL
AUC at 192 h [7]: 2400 ng·h/mL
AUC at 192 h [8]: 27100 ng·h/mL
half-life [9]: 5.7 h
half-life [10]: 7.1 h
half-life [11]: 7.2 h
AUC at 168 h [12]: 6500 ng·h/mL
half-life [13]: 6 h
half-life [14]: 6.2 h
Cmax [15]: 480 ng/mL
Cmax [16]: 6830 ng/mL
AUC at 264 h [17]: 47600 ng·h/mL
half-life [18]: 5 h
EC50 [21]: 100 nM
Efficacy [22]: 56%
EC50 [23]: 8 nM
Activity [24]: inactive
Activity [25]: inactive
Activity [26]: inactive
Compound: Cc1cc(SCc2nc(-c3ccc(Cl)c(Cl)c3)ns2)ccc1OC(C)(C)C(=O)O
Fold change [1]: 4.8
Activity (Rattus norvegicus [2]): 45 mg/dL
Activity (Rattus norvegicus [3]): 263 mg/dL
Activity (Canis familiaris [19]): Dose-dependent effect
Fold change (Canis familiaris [20]): 1.7

Source: ChEMBL document CHEMBL1143875, “Synthesis and structure-activity relationships of thiadiazole-derivatives as potent and orally active peroxisome proliferator-activated receptors alpha/delta dual agonists” (Bioorg Med Chem, 2008)
